# Read-outs that look alike come from different tables or passages of the source.
# Assays:
# [1] = test system: TGF-β1 induced ECM accumulation in HFL1 human lung fibroblast cells; assay: TGF-β1 induced monolayer extracellular matrix (ECM) accumulation assay (Sirius Red collagen) in fibronectin-coated plates; type: cell-based; conditions: for inhibition at 300 µM: compound alone at 300 μM (FIG. 1)
# From the text: The composition comprising tranilast and NAC or composition containing pirfenidone and NAC was investigated for their antifibrotic activity by employing in vitro collagen synthesis assay: the TGF-β1 induced monolayer extracellular matrix (ECM) accumulation assay in fibronectin-coated plates.
# Method Human lung fibroblast cell line, HFL1, was purchased from American Type Culture Collection. Cells were maintained in FK12 medium supplemented with 10% FBS and antibiotics. Cells were trypsinized and seeded into 96-well fibronectin-coated plate as 5×10^4cells/well and cultured overnight to achieve 60-80% confluence. After a washing with PBS and serum-free medium, fresh medium supplemented with 40 pM of TGF-β1 was added in each test well. Different concentrations of tranilast, pirfenidone, NAC and their combinations were also added to some test wells. The plates were left at 37° C. in a CO2 incubator for 72 h. After removing medium cells were fixed to the plate with 0.5% glutaraldehyde for 30 minutes at room temperature. Cells were washed and treated with 0.5M acetic acid for 30 minutes. After washing cells with distilled water 250 µl of Sirius Red was added for 2 hours. Dye was removed and cells were washed with distilled water. Sirius Red was eluted with 200 ul 0.1 N sodium hydroxide, and the optical density at 540 nm was determined using a Molecular Dynamics spectrophotometer.
# [2] = cited from earlier work
# [3] = doses of up to 600 mg/day for at least 3 months, many years of clinical use; cited from earlier work
# [4] = HFL1 cells, 40 pM TGF-β1, 72 h, compound alone at 10 μM (FIG. 1)
# [5] = Homo sapiens, HFL1 cells, 40 pM TGF-β1, 72 h, read-out: inhibition of TGF-β1 mediated ECM (collagen) accumulation
# [6] = combination screen plate (FIG. 2A/3A), HFL1 cells, compound alone at 300 μM
smiles,measurement,setting,value
"Cc1ccc(=O)n(-c2ccccc2)c1 [pirfenidone, 5-methyl-L-phenyl-2-(1H)-pyridone]",inhibition of TGF-β1 mediated ECM (collagen) accumulation,[1]; [4],not effective
same,inhibition of TGF-β1 mediated ECM (collagen) accumulation,"[1]; HFL1 cells, 40 pM TGF-β1, 72 h, compound alone at 100 μM (FIG. 1)",not effective
same,inhibition at 1000 µM,"[1]; Homo sapiens, HFL1, screen plate FIG. 3A, compound alone at 1000 μM, read-out: anti-fibrosis activity (inhibition of TGF-β1 induced collagen accumulation)",100%
same,inhibition at 300 µM,[1]; [5],22 ± 7%
same,inhibition at 500 µM,"[1]; Homo sapiens, HFL1 cells, 40 pM TGF-β1, 72 h, compound alone at 500 μM (FIG. 1), read-out: inhibition of TGF-β1 mediated ECM (collagen) accumulation",33 ± 8%
same,inhibition at 1000 µM,"[1]; Homo sapiens, HFL1 cells, 40 pM TGF-β1, 72 h, compound alone at 1000 μM (FIG. 1), read-out: inhibition of TGF-β1 mediated ECM (collagen) accumulation",~100%
same,suppression of TGF-β1 mediated collagen accumulation,[1]; [6],18%
same,plasma concentration,"[2]; usual therapeutic dose of 1200 mg/day (Shi, Wu et al. 2007)",100 to 1000 µM
"CC(=O)N[C@@H](CS)C(=O)O [NAC, N-acetyl-cysteine]",inhibition of TGF-β1 mediated ECM accumulation,"[1]; HFL1 cells, 40 pM TGF-β1, 72 h, alone at 0.1 mM (FIG. 1C)",not effective
same,inhibition of TGF-β1 mediated ECM accumulation,"[1]; HFL1 cells, 40 pM TGF-β1, 72 h, alone at 0.5 mM (FIG. 1C)",not effective
same,inhibition of TGF-β1 mediated ECM accumulation,"[1]; HFL1 cells, 40 pM TGF-β1, 72 h, alone at 1 mM (FIG. 1C)",not effective
same,suppression of TGF-β1 mediated ECM accumulation,"[1]; HFL1 cells, 40 pM TGF-β1, 72 h, alone at 2 mM (FIG. 1C)",32±14%
same,suppression of TGF-β1 mediated ECM accumulation,"[1]; HFL1 cells, 40 pM TGF-β1, 72 h, alone at 5 mM (FIG. 1C)",45±17%
same,suppression of TGF-β1 mediated ECM accumulation,"[1]; HFL1 cells, 40 pM TGF-β1, 72 h, alone at 10 mM (FIG. 1C)",70.5±18%
same,inhibition at 20000 µM,"[1]; Homo sapiens, HFL1 cells, 40 pM TGF-β1, 72 h, alone at 20 mM (FIG. 1C), read-out: inhibition of TGF-β1 mediated ECM accumulation",100%
same,suppression of TGF-β1 mediated collagen accumulation,"[1]; screen plate FIG. 2A, compound alone at 2 mM",25%
"COc1ccc(/C=C/C(=O)Nc2ccccc2C(=O)O)cc1OC [tranilast, n-[3,4-dimethoxycinnamoyl] anthranilic acid]",shift in the potency of tranilast,[1]; 50 μM tranilast with 2 mM NAC (88%) versus tranilast alone (11%),8 fold
same,inhibition of TGF-β1 mediated ECM (collagen) accumulation,[1]; [4],no significant inhibition
same,inhibition of TGF-β1 mediated ECM (collagen) accumulation,"[1]; HFL1 cells, 40 pM TGF-β1, 72 h, compound alone at 25 μM (FIG. 1)",no significant inhibition
same,inhibition of TGF-β1 mediated ECM (collagen) accumulation,"[1]; HFL1 cells, 40 pM TGF-β1, 72 h, compound alone at 50 μM (FIG. 1)",no significant inhibition
same,inhibition at 100 µM,"[1]; Homo sapiens, HFL1 cells, 40 pM TGF-β1, 72 h, compound alone at 100 μM (FIG. 1), read-out: inhibition of TGF-β1 mediated ECM (collagen) accumulation",34 ± 11%
same,inhibition at 300 µM,[1]; [5],100%
same,suppression of TGF-β1 mediated collagen accumulation,[1]; [6],100%
same,suppression of TGF-β1 mediated collagen accumulation,"[1]; screen plate FIG. 2A, compound alone at 50 μM",11%
same,plasma concentration,[2]; after oral administration of the usual therapeutic dose of 600 mg/day (Kusama et al. 1999),30 to 300 µM
same,clinical safety and tolerability,[3],safe and well tolerated

# Source: patent US20110288134A1, “COMPOSITION AND METHOD FOR TREATING FIBROSIS” (Pacific Therapeutics Ltd., priority 2008, published 2011)
